Columns and labels:
Type in all cases: functional
Microsporum canis = assay: Antifungal activity against Microsporum canis assessed as lowest dose required to total inhibition of fungal growth
[1] = system: Trichophyton mentagrophytes; assay: Antifungal activity against Trichophyton mentagrophytes assessed as lowest dose required to total inhibition of fungal growth
Trichophyton rubrum = assay: Antifungal activity against Trichophyton rubrum assessed as lowest dose required to total inhibition of fungal growth
Cryptococcus neoformans = assay: Antifungal activity against Cryptococcus neoformans assessed as lowest dose required to total inhibition of fungal growth
Candida tropicalis = assay: Antifungal activity against Candida tropicalis assessed as lowest dose required to total inhibition of fungal growth
Candida albicans = assay: Antifungal activity against Candida albicans assessed as lowest dose required to total inhibition of fungal growth
Mucor = assay: Antifungal activity against Mucor species assessed as lowest dose required to total inhibition of fungal growth
Aspergillus fumigatus = assay: Antifungal activity against Aspergillus fumigatus assessed as lowest dose required to total inhibition of fungal growth
Sporothrix schenckii = assay: Antifungal activity against Sporothrix schenckii assessed as lowest dose required to total inhibition of fungal growth
Saprolegnia = assay: Antifungal activity against Saprolegnia species assessed as lowest dose required to total inhibition of fungal growth
Phialophora verrucosa = assay: Antifungal activity against Phialophora verrucosa assessed as lowest dose required to total inhibition of fungal growth
[2] = system: Erysipelothrix rhusiopathiae; assay: Antibaterial activity against Erysipelothrix insidiosa assessed as lowest dose required to total inhibition of bacterial growth
[3] = system: Staphylococcus haemolyticus; assay: Antibaterial activity against Staphylococcus haemolyticus assessed as lowest dose required to total inhibition of bacterial growth
Streptococcus pyogenes = assay: Antibaterial activity against Streptococcus pyogenes assessed as lowest dose required to total inhibition of bacterial growth

| SMILES | GI (Microsporum canis) | GI [1] | GI (Trichophyton rubrum) | GI (Cryptococcus neoformans) | GI (Candida tropicalis) | GI (Candida albicans) | GI (Mucor) | GI (Aspergillus fumigatus) | GI (Sporothrix schenckii) | GI (Saprolegnia) | GI (Phialophora verrucosa) | GI [2] | GI [3] | GI (Streptococcus pyogenes) |
| --- | --- | --- | --- | --- | --- | --- | --- | --- | --- | --- | --- | --- | --- | --- |
| Clc1ccc(C(CCCOc2ccccc2)Cn2ccnc2)c(Cl)c1.O=C(O)C(=O)O (stereo not drawn) | 10 µg/mL | <1 µg/mL | <1 µg/mL | <1 µg/mL | >100 µg/mL | >100 µg/mL | >100 µg/mL | 10 µg/mL | <1 µg/mL | 10 µg/mL | 10 µg/mL | <1 µg/mL | 10 µg/mL | <1 µg/mL |
| Fc1ccc(OCCCC(Cn2ccnc2)c2ccc(Cl)cc2Cl)cc1.O=C(O)C(=O)O (stereo not drawn) | <1 µg/mL | <1 µg/mL | <1 µg/mL | <1 µg/mL | >100 µg/mL | >100 µg/mL | >100 µg/mL | 100 µg/mL | <1 µg/mL | 10 µg/mL | 100 µg/mL | 1 µg/mL | 10 µg/mL | 1 µg/mL |
| Clc1ccc(C(COc2ccccc2Cl)Cn2ccnc2)cc1.O=[N+]([O-])O (stereo not drawn) | 100 µg/mL | <1 µg/mL | 10 µg/mL | <1 µg/mL | >100 µg/mL | 100 µg/mL | 100 µg/mL | >100 µg/mL | 10 µg/mL | >100 µg/mL | >100 µg/mL | 1 µg/mL | 10 µg/mL | 1 µg/mL |
| Clc1ccc(C(CCOc2ccccc2Br)Cn2ccnc2)c(Cl)c1.O=C(O)C(=O)O (stereo not drawn) | 100 µg/mL | <1 µg/mL | <1 µg/mL | <1 µg/mL | >100 µg/mL | >100 µg/mL | >100 µg/mL | >100 µg/mL | 10 µg/mL | 100 µg/mL | 100 µg/mL | <1 µg/mL | 10 µg/mL | <1 µg/mL |
| Clc1ccc(C(COc2ccccc2Cl)Cn2ccnc2)c(Cl)c1.O=[N+]([O-])O (stereo not drawn) | 10 µg/mL | <1 µg/mL | <1 µg/mL | <1 µg/mL | >100 µg/mL | 100 µg/mL | >100 µg/mL | 100 µg/mL | 10 µg/mL | 100 µg/mL | 100 µg/mL | <1 µg/mL | 1 µg/mL | <1 µg/mL |
| COc1ccc(OCCCC(Cn2ccnc2)c2ccc(Cl)cc2Cl)cc1.O=C(O)C(=O)O (stereo not drawn) | 10 µg/mL | <1 µg/mL | <1 µg/mL | <1 µg/mL | >100 µg/mL | 10 µg/mL | 100 µg/mL | 10 µg/mL | <1 µg/mL | <1 µg/mL | 10 µg/mL | <1 µg/mL | 100 µg/mL | <1 µg/mL |
| Clc1ccc(OCC(Cn2ccnc2)c2ccc(Cl)cc2Cl)cc1.O=[N+]([O-])O (stereo not drawn) | 10 µg/mL | <1 µg/mL | <1 µg/mL | <1 µg/mL | >100 µg/mL | 10 µg/mL | 100 µg/mL | 10 µg/mL | 10 µg/mL | 100 µg/mL | 10 µg/mL | <1 µg/mL | 10 µg/mL | <1 µg/mL |
| Clc1ccc(C(CCCOc2ccccc2Br)Cn2ccnc2)c(Cl)c1.O=C(O)C(=O)O (stereo not drawn) | <1 µg/mL | <1 µg/mL | <1 µg/mL | <1 µg/mL | >100 µg/mL | 100 µg/mL | >100 µg/mL | 100 µg/mL | 10 µg/mL | 100 µg/mL | 100 µg/mL | <1 µg/mL | 10 µg/mL | <1 µg/mL |
| Clc1ccc(C(COc2ccc(Cl)cc2Cl)Cn2ccnc2)cc1.O=[N+]([O-])O (stereo not drawn) | 10 µg/mL | <1 µg/mL | <1 µg/mL | <1 µg/mL | >100 µg/mL | 10 µg/mL | >100 µg/mL | 100 µg/mL | 10 µg/mL | >100 µg/mL | 100 µg/mL | 1 µg/mL | 10 µg/mL | <1 µg/mL |
| Clc1ccc(OCC(Cn2ccnc2)c2ccc(Cl)cc2Cl)c(Cl)c1.O=[N+]([O-])O (stereo not drawn) | <1 µg/mL | <1 µg/mL | <1 µg/mL | <1 µg/mL | >100 µg/mL | >100 µg/mL | >100 µg/mL | >100 µg/mL | <1 µg/mL | >100 µg/mL | 100 µg/mL | <1 µg/mL | 1 µg/mL | <1 µg/mL |
| Clc1ccc(OCC(Cn2ccnc2)c2ccc(Cl)cc2)cc1.O=[N+]([O-])O (stereo not drawn) | <1 µg/mL | <1 µg/mL | <1 µg/mL | <1 µg/mL | >100 µg/mL | >100 µg/mL | 10 µg/mL | 100 µg/mL | 10 µg/mL | 100 µg/mL | 100 µg/mL | 1 µg/mL | 10 µg/mL | <1 µg/mL |
| Clc1ccc(OCC(Cn2ccnc2)c2ccc(Br)cc2)cc1.O=[N+]([O-])O (stereo not drawn) | 10 µg/mL | <1 µg/mL | <1 µg/mL | 10 µg/mL | >100 µg/mL | 100 µg/mL | >100 µg/mL | 100 µg/mL | 10 µg/mL | >100 µg/mL | 100 µg/mL | <1 µg/mL | 10 µg/mL | <1 µg/mL |
| Clc1ccc(COC(Cn2ccnc2)c2ccc(Cl)cc2Cl)c(Cl)c1 (stereo not drawn) [MICONAZOLE] | 1 µg/mL | <1 µg/mL | <1 µg/mL | 1 µg/mL | 100 µg/mL | 10 µg/mL | >100 µg/mL | 10 µg/mL | 1 µg/mL | 10 µg/mL | 100 µg/mL | <1 µg/mL | 10 µg/mL | <1 µg/mL |
| Clc1ccc(C(COc2ccc(Br)cc2)Cn2ccnc2)c(Cl)c1.O=[N+]([O-])O (stereo not drawn) | <1 µg/mL | <1 µg/mL | <1 µg/mL | <1 µg/mL | >100 µg/mL | 100 µg/mL | 100 µg/mL | 100 µg/mL | 100 µg/mL | 100 µg/mL | 100 µg/mL | <1 µg/mL | 10 µg/mL | <1 µg/mL |
| Clc1ccc(OCCC(Cn2ccnc2)c2ccc(Cl)cc2Cl)cc1.O=[N+]([O-])O (stereo not drawn) | 10 µg/mL | <1 µg/mL | <1 µg/mL | <1 µg/mL | >100 µg/mL | 10 µg/mL | 10 µg/mL | 100 µg/mL | 10 µg/mL | 10 µg/mL | 100 µg/mL | <1 µg/mL | 1 µg/mL | <1 µg/mL |
| Clc1ccc(C(CCOc2ccc(Br)cc2)Cn2ccnc2)c(Cl)c1.O=[N+]([O-])O (stereo not drawn) | <10 µg/mL | <10 µg/mL | <10 µg/mL | <10 µg/mL | 100 µg/mL | <10 µg/mL | 100 µg/mL | 100 µg/mL | <10 µg/mL | <10 µg/mL | <10 µg/mL | <10 µg/mL | 100 µg/mL | <10 µg/mL |
| COc1ccc(OCCC(Cn2ccnc2)c2ccc(Cl)cc2Cl)cc1.O=[N+]([O-])O (stereo not drawn) | 10 µg/mL | <1 µg/mL | <1 µg/mL | <1 µg/mL | >100 µg/mL | 100 µg/mL | 100 µg/mL | 100 µg/mL | 10 µg/mL | <1 µg/mL | 10 µg/mL | <1 µg/mL | 10 µg/mL | <1 µg/mL |
